Experimental data published in patent publication US4072743A, “N^2 -arylsulfonyl-L-argininamides and the pharmaceutically acceptable salts thereof” (Mitsubishi Chemical Industries Limited, priority 1974, dated 1978).

How the values were obtained:
[1] = molecular target: T1, thrombin (Bos taurus, UniProt P00735); assay: Fibrinogen coagulation time (thrombin-induced clotting of bovine fibrinogen); assay type: biochemical; conditions: thrombin 5 units/ml, borate saline buffer pH 7.4, 25° C, normal coagulation time 50-55 seconds prolonged to 100-110 seconds
T1 construct: purchased Mochida Pharmaceutical Co., Ltd
Protocol: The measurement of the fibrinogen coagulation time was conducted as follows:
Immediately after mixing, the reaction mixture was transferred from the ice bath to a bath maintained at 25° C. Coagulation times were taken as the period between the time of transference to the 25° C bath and the time of the first appearance of fibrin threads.
The term "concentration required to prolong the coagulation time by a factor of two" is the concentration of an active ingredient required to prolong the normal coagulation time 50-55 seconds to 100-110 seconds.

[2] = system: mice; assay: Acute toxicity (LD50) by intraperitoneal administration in mice; assay type: in vivo; conditions: mice (male, 20 g)
Description: Representative LD50 values, for example, for N^2 -(5,6,7,8-tetrahydro-1-naphthylsulfonyl)-N-(2-methoxyethyl)glycine, N^2 -(7-methyl-2-naphthylsulfonyl)-N-butylglycine and N^2 -(6,7-dimethyl-1-naphthylsulfonyl)-N-(2-methoxyethyl)glycine are above 1,500 milligrams per kilogram, respectively.

Row | Compound | Concentration required to prolong the coagulation time by a factor of two [1] [µM] | acute toxicity value (LD50) [2]
1 | COCCN(CC(=O)O)C(=O)[C@H](CCCNC(=N)N)NS(=O)(=O)c1ccc2ccc(C)cc2c1 [Sample 15, N^2-(7-methyl-2-naphthylsulfonyl)-L-arginyl-N-(2-methoxyethyl)glycine] | 0.2 | 
2 | CCCCN(CC(=O)O)C(=O)[C@H](CCCNC(=N)N)NS(=O)(=O)c1ccc2ccc(C)cc2c1 [Sample 14, N^2-(7-methyl-2-naphthylsulfonyl)-L-arginyl-N-butylglycine] | 0.3 | above 1,500 milligrams per kilogram
3 | COCCN(CC(=O)O)C(=O)[C@H](CCCNC(=N)N)NS(=O)(=O)c1cccc2c1CCCC2 [Sample 3, N^2-(5,6,7,8-tetrahydro-1-naphthylsulfonyl)-L-arginyl-N-(2-methoxyethyl)glycine] | 10 | above 1,500 milligrams per kilogram
4 | N=C(N)NCCC[C@H](NS(=O)(=O)c1ccc2c(c1)CCCC2)C(=O)N(CC(=O)O)Cc1ccccc1 [Sample 4, N^2-(5,6,7,8-tetrahydro-2-naphthylsulfonyl)-L-arginyl-N-benzylglycine] | 30 | 
5 | Cc1ccc2ccc(S(=O)(=O)N[C@@H](CCCNC(=N)N)C(=O)N(CC(=O)O)CC3CCCCC3)cc2c1 [Sample 17, N^2-(7-methyl-2-naphthylsulfonyl)-L-arginyl-N-cyclohexylmethylglycine] | 14 | 
6 | CCCCNC(=O)[C@H](CCCNC(=N)N)NS(=O)(=O)c1cccc2c(N(C)C)cccc12 [N^2 -dansyl-N-butyl-L-argininamide, reference compound] |  | 75 milligrams per kilogram
7 | CCCCN(CC(=O)O)C(=O)[C@H](CCCNC(=N)N)NS(=O)(=O)c1cccc2c(N(C)C)cccc12 [Sample 24, N^2-(5-dimethylamino-1-naphthylsulfonyl)-L-arginyl-N-butylglycine] | 4 | 
8 | CCCCN(C)C(=O)[C@H](CCCNC(=N)N)NS(=O)(=O)c1cccc2c(N(C)C)cccc12 [N^2 -dansyl-N-methyl-N-butyl-L-argininamide, reference compound] |  | 70 milligrams per kilogram
9 | COCCN(CC(=O)O)C(=O)[C@H](CCCNC(=N)N)NS(=O)(=O)c1cccc2ccc(C)cc12 [Sample 22, N^2-(7-methyl-1-naphthylsulfonyl)-L-arginyl-N-(2-methoxyethyl)glycine] | 20 | 
10 | CCCCN(CC(=O)O)C(=O)[C@H](CCCNC(=N)N)NS(=O)(=O)c1cccc2c1CCCC2 [Sample 1, N^2-(5,6,7,8-tetrahydro-1-naphthylsulfonyl)-L-arginyl-N-butylglycine] | 20 | 
11 | COCCN(CC(=O)O)C(=O)[C@H](CCCNC(=N)N)NS(=O)(=O)c1cccc2cc(C)c(C)cc12 [Sample 23, N^2-(6,7-dimethyl-1-naphthylsulfonyl)-L-arginyl-N-(2-methoxyethyl)glycine] | 10 | above 1,500 milligrams per kilogram
